The test system of series [1] is intracellular caspase-1 activity. The experiment in a line: Intracellular caspase-1 activity in human PBMCs stimulated with LPS + nigericin (Caspase-Glo). The series is classed as cell-based. The conditions noted are these: Human PBMC, read-out: Geo Av IC50, Caspase-1. As to the method:
(§1) Cell viability was determined by addition of an equal volume of CellTiter-Glo® 2.0 reagent (Promega) to the remaining cells/supernatant in each well. Intracellular Caspase-1 activity was measured using the Caspase-Glo® assay (Promega) according to the manufacturer’s instructions. The biochemical capsase-1 assay was conducted at Reaction Biology Corporation (Malvern, USA). Human IL-1β, IL-1α, and TNFα and mouse IL-1β were measured in cell culture supernatants using homogeneous time resolved fluorescence assay kits (HTRF, Cisbio, Codolet, France). Human IL-18 was measured in cell culture supernatants using an ELISA kit (R&D Systems, Minneapolis, MN, USA). Plasma IL-1β concentrations were determined by Quantikine® ELISA (R&D Systems, Minneapolis, MN).
(§2) 4H). MS: m/z 433.1 (M+H+).
(§3) Inflammasome activation.PBMCs (iXCells Biotechnologies, San Diego, USA) were thawed the day before the assay and seeded in complete medium (RPMI 1640 medium with GlutaMAX, supplemented with an additional 2.5 g/L D-glucose, 10% Fet al Bovine Serum, 100 mM Sodium Pyruvate, 1% Penicillin/Streptomycin, 10 mM HEPES and 0.05 mM β -mercaptoethanol) in polystyrene V-bottom 96-well plates at 5x10^4 cells per well and incubated overnight at 37°C with 5% CO 2. The next day, PBMC media was r eplaced with serum-fr ee media p rior t o the assay. […]

Series [2] relates to pyroptosis of mouse BMDMs. Description: Inhibition of pyroptotic cell death measured by cellular ATP content (CellTiter-Glo viability) in LPS + nigericin stimulated mouse BMDMs. Format: cell-based. The conditions noted are these: Mouse BMDM, read-out: Geo Av IC50, Viability (pyroptosis, cellular ATP content). As to the method: as §1, §2, §3
A general note: ATP-based viability assays read luminescence as a measure of living cells.

For series [3], the system named is NLRP1 inflammasome. Description: IL-1β production in Nlrp3-/- mouse BMDMs after NLRP1 activation (LPS + L18-MDP). Format: cell-based. The conditions noted are these: mBMDMs, concentrations up to 10 µM.
Series [4] in a line: Pharmacokinetics in male Beagle dogs after i.v. and p.o. administration. The series is classed as in vivo. The conditions noted are these: plasma, Dog. As for the experimental part: The pharmacokinetics (PK) of JT002 were assessed in male Sprague–Dawley rats and male Beagle dogs after intravenous (i.v.) and oral (p.o.) administration (Table 2). […] In dogs, a maximum drug plasma concentration (Cmax) of 4.0 µg/mL (9 µM) was reached 1 h after a single 1 mg oral dose. Dose-adjusted exposures (dose-adjusted AUC) from oral administration were close to identical between rat and dog (11.8 versus 11.6) (Table 2).

These results are taken from paper PMC10439952, “JT002, a small molecule inhibitor of the NLRP3 inflammasome for the treatment of autoinflammatory disorders” (Scientific Reports, 2023).

By pIC50 is commonly meant −log10 of the IC50, conventionally taken in molar units. Usually AUC stands for concentration integrated over time. A higher AUC goes with high exposure. The half-life is the time in which the quantity being followed falls by half. Lower therefore signals rapid decline. The term Tmax denotes the time at which the peak concentration occurs. As usually defined, the bioavailability is dose-corrected exposure relative to a reference, in per cent.

pIC50: −log10 of the molar value. Read-outs that look alike come from different tables or passages of the source.

`CO[C@@H]1COc2c(S(=O)(=O)NC(=O)Nc3c4c(cc5c3CCC5)CCC4)cnn2C1` [JT002]: the results for the pIC50 in series [1] and in series [2] were 8.10 and 8.15, respectively. For the same compound, in series [3], the “inhibition of IL-1β production after NLRP1 activation” value is on record as “no inhibition of IL-1β production”. Further, the Cmax in series [4] (single 1 mg oral dose, read-out: maximum drug plasma concentration (Cmax)) worked out at 9 µM; in series [4] (iv, i.v., 1 mg/kg, read-out: Cmax) it was 7000 ng/mL; in series [4] (po, p.o., 1 mg/kg, read-out: Cmax) it was 4000 ng/mL. In addition, the area under the curve (AUC) was determined as 10600 ng·h/mL in series [4] (iv, 1 mg/kg) and 11600 ng·h/mL in series [4] (po, 1 mg/kg). Besides, the half-life was 1.1 h in series [4] (iv, 1 mg/kg) and 1.4 h in series [4] (po, 1 mg/kg). Further, the clearance in series [4] (iv, i.v., 1 mg/kg, read-out: Clpl (plasma clearance)) was 1.8 mL/min/kg. Besides, the Vd in series [4] (iv, i.v., 1 mg/kg, read-out: Vss) is 0.2 L/kg. Also, the Tmax in series [4] (po, 1 mg/kg, median) came to 1 h. For the same compound, the bioavailability in series [4] (po, p.o., 1 mg/kg, sodium salt form, read-out: %F (oral bioavailability)) came to 100%.
